Source: PMC7921093, “Human METTL7B is an alkyl thiol methyltransferase that metabolizes hydrogen sulfide and captopril” (Scientific Reports, 2021)
One block for each molecule: values may come before it.

How the values were obtained:
Format in all cases: biochemical
[1] = molecular target: T1, METTL7B (methyltransferase-like protein 7B) (Homo sapiens, UniProt Q6UX53); assay: MTaseGlo substrate screen (AdoHcy formation) with purified enzyme
T1 construct: gene TMT1B; His-GST-METTL7B, N-terminal His-GST tag with (AP)5 linker
T1 sequence (Q6UX53 1-244): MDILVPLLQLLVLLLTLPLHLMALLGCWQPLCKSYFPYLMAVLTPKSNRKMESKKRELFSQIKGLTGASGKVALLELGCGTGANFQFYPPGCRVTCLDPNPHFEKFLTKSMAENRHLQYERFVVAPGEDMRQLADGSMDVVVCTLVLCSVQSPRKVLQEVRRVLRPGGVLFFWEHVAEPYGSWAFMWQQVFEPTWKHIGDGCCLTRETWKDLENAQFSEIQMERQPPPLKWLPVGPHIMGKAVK
Excerpt: MTaseGlo substrate screen (AdoHcy formation) with purified enzyme on METTL7B (methyltransferase-like protein 7B) | D-Penicillamine|++

[2] = molecular target: T1, METTL7B (methyltransferase-like protein 7B); assay: Michaelis-Menten kinetics of S-methyl captopril formation, LC-MS/MS
[3] = molecular target: T1, METTL7B (methyltransferase-like protein 7B); assay: S-methyl captopril formation by purified enzyme, LC-MS/MS; D98A inactive
[4] = molecular target: T1, METTL7B (methyltransferase-like protein 7B); assay: methylsulfide formation, LC-MS/MS after monobromobimane derivatization, saturable kinetics

- MTaseGlo substrate screen (AdoHcy formation) with purified enzyme [1]: D-Penicillamine|++
Structure (SMILES): CC(C)(S)[C@@H](N)C(=O)O [D-penicillamine]

Structure (SMILES): C[S+](CC[C@H](N)C(=O)[O-])C[C@H]1O[C@@H](n2cnc3c(N)ncnc32)[C@H](O)[C@@H]1O (stereo partly drawn) [S-adenosyl-L-methionine]
- Michaelis-Menten kinetics of S-methyl captopril formation, LC-MS/MS [2]: the AdoMet activity curve was saturable and exhibited classic Michaelis–Menten kinetics

Structure (SMILES): C[C@H](CS)C(=O)N1CCC[C@H]1C(=O)O [captopril]
- S-methyl captopril formation by purified enzyme, LC-MS/MS; D98A inactive [3]: concentration-dependent formation of S-methyl captopril was observed upon incubation with purified wild-type His-GST-METTL7B

Structure (SMILES): S [hydrogen sulfide]
- methylsulfide formation, LC-MS/MS after monobromobimane derivatization, saturabl [4]: Peak area ratio (PAR) versus concentration curve for hydrogen sulfide methylation as measured by formation of methylsulfide
